Measurements from patent US20260140098A1, “METHOD FOR TREATING PLASMA SAMPLE CONTAINING (7aS,2'S)-2-OXO-CLOPIDOGREL AND METHOD FOR DETERMINING THE SAME” (CHENGDU SHIBEIKANG BIOMEDICAL TECHNOLOGY CO., LTD., priority 2021, published 2026).
Values joined by “and” are separate entries in the source; they are usually repeats but may differ in a detail not shown here. Equal entries are not always repeated.

Test: Stability of (7aS,2′S)-2-oxo-clopidogrel in plasma containing the reducing agent (Example 8)
Format: in vitro ADME, human
Details: plasma with reducing agent; for Measured concentration: single replicates
Procedure: S1. Whole blood treatment: taking 3 ml of human whole blood anticoagulated with EDTA-K2 after oral administration of (7aS,2′S)-2-oxo-clopidogrel, cooling to 4° C. on ice, then adding thereto 60 μl of tris(2-carboxyethyl) phosphine at 100 mg/ml; shaking well and then centrifuging (2-8° C., 3000 rpm for 10 min), and collecting plasma for later use.
S2. Plasma sample pre-treatment: taking 100 μl of the plasma, adding 5 μl of an internal standard working solution and 300 μl of acetonitrile respectively; after vortex mixing, centrifuging at 2-8° C. and 10,000 r/min for 10 min, and collecting the supernatant for later use.
S3. LC-MS/MS analysis: injecting 10 μl of the supernatant prepared from step S2 for determination, where the liquid chromatography conditions are: • the chromatographic column is Kinetex® 1.7 μm C18 100 A 100×2.1 mm; the column temperature is 40° C.; the mobile phase is acetonitrile-0.2% aqueous formic acid solution with a flow rate of 0.2 ml/min; and a gradient elution is carried out as specified in the table below:
ESI ion source, positive ion detection in multiple reaction monitoring mode (MRM); the quantitatively analyzed ions (7aS,2′S)-2-oxo-clopidogrel: m/z 338.100→155.000, IS: m/z 341.100→158.000, a capillary voltage of 4.0 KV, a cone voltage of 25 V, a desolvation gas temperature of 400° C. and a source temperature of 150° C. The optimal collision energy is 20 eV.
Blank plasma was taken and operated according to S1 of Example 1 to obtain a blank plasma containing the reducing agent. Subsequently, a standard series solution of (7aS,2′S)-2-oxo-clopidogrel was added to prepare quality control samples containing (7aS,2′S)-2-oxo-clopidogrel at concentrations of 0.1 and 12 ng/ml. The plasma samples were examined for stability after ice box short-term placement, stability after room temperature short-term placement, stability after freeze-thaw cycle and stability after long-term cryopreservation.
The plasma samples at different placing time points were taken to examine the stability by pre-treating the plasma samples according to the method of S2 of Example 1, followed by LC/MS/MS determination according to the method of S3.

[1] = placing at room temperature for 1 h, theoretical 0.1 ng/mL
[2] = placing at room temperature for 1 h, theoretical 12.0 ng/mL
[3] = placing below −60° C. for 36 days, theoretical 0.1 ng/mL
[4] = placing in ice box for 4 h, theoretical 12.0 ng/mL
[5] = three cycles of freeze-thaw, theoretical 0.1 ng/mL
[6] = three cycles of freeze-thaw, theoretical 12.0 ng/mL

- recovery at 1 h, 0.1 ng/mL (human, plasma containing the reducing agent (TCEP), placing at room temperature for 1 h, theoretical 0.1 ng/mL, read-out: Recovery rate): 102%
- recovery at 1 h, 12 ng/mL (human, plasma containing the reducing agent (TCEP), placing at room temperature for 1 h, theoretical 12.0 ng/mL, read-out: Recovery rate): 99.4%
- recovery at 36 days, 0.1 ng/mL (human, plasma containing the reducing agent (TCEP), placing below −60° C. for 36 days, theoretical 0.1 ng/mL, read-out: Recovery rate): 96.4%
- recovery at 36 days, 12 ng/mL (human, plasma containing the reducing agent (TCEP), placing below −60° C. for 36 days, theoretical 12.0 ng/mL, read-out: Recovery rate): 97.7%
- recovery at 4 h, 0.1 ng/mL (human, plasma containing the reducing agent (TCEP), placing in ice box for 4 h, theoretical 0.1 ng/mL, read-out: Recovery rate): 100%
- recovery at 4 h, 12 ng/mL (human, plasma containing the reducing agent (TCEP), placing in ice box for 4 h, theoretical 12.0 ng/mL, read-out: Recovery rate): 98.5%
- recovery at 0.1 ng/mL (human, plasma containing the reducing agent (TCEP), three cycles of freeze-thaw, theoretical 0.1 ng/mL, read-out: Recovery rate): 100%
- recovery at 12 ng/mL (human, plasma containing the reducing agent (TCEP), three cycles of freeze-thaw, theoretical 12.0 ng/mL, read-out: Recovery rate): 99.3%
- Average measured concentration [1]: 0.1021 ng/mL
- Average measured concentration [2]: 11.9269 ng/mL
- Average measured concentration [3]: 0.0964 ng/mL
- Measured concentration [3]: 0.0980 ng/mL and 0.0940 ng/mL
- Measured concentration (placing in ice box for 4 h, theoretical 0.1 ng/mL): 0.1013 ng/mL (2×) and 0.0960 ng/mL
- Average measured concentration [4]: 11.8184 ng/mL
- Average measured concentration [5]: 0.1003 ng/mL
- Average measured concentration [6]: 11.9191 ng/mL
SMILES: COC(=O)[C@H](c1ccccc1Cl)N1CC[C@@H]2SC(=O)C=C2C1 [(7aS,2′S)-2-oxo-clopidogrel, methyl(S)-2-(2-chlorophenyl)-2-((S)-2-oxo-2,6,7,7a-tetrahydrothieno[3,2-c]pyridin-5 (4H)-yl)acetate]
- Measured concentration [1]: 0.1013 ng/mL and 0.1027 ng/mL and 0.1020 ng/mL and 0.1040 ng/mL and 0.1007 ng/mL
- Measured concentration [2]: 11.8349 ng/mL and 11.7245 ng/mL and 11.8592 ng/mL and 12.1616 ng/mL and 12.0541 ng/mL
- Measured concentration [4]: 12.0320 ng/mL and 11.7632 ng/mL and 11.6883 ng/mL and 11.8822 ng/mL and 11.7261 ng/mL
- Measured concentration [5]: 0.1007 ng/mL (2×) and 0.1013 ng/mL (2×) and 0.0973 ng/mL
- Measured concentration [6]: 11.9123 ng/mL and 11.8416 ng/mL and 11.9078 ng/mL and 11.8995 ng/mL and 12.0342 ng/mL
